Assay results taken from patent US6967196B1, “Sulfonamide compounds and uses thereof” (Bristol-Myers Squibb Company, priority 1999, dated 2005).
Where a name gives a salt, the structure may show the parent alone. Read-outs that look alike come from different tables or passages of the source.

Tested on: amyloid β production in transfected H4 (human neuroglioma) cells stably expressing APP constructs
Assay: In vitro cell-based assay of inhibitors of amyloid β production (ELISA)
Details: amyloid β in medium by ELISA
Protocol: In Vitro Cell-Based Assay of Inhibitors of Amyloid β Production
Transfected H4 (human neuroglioma) cells stably expressing APP constructs are used to identify and assess inhibitors of Aβ production. In brief, cells lines are exposed to compounds, and the effect of each compound on amyloid β production is determined by measuring the amount of amyloid β produced using an enzyme linked immunosorbent assay (ELISA) that detects amyloid β (see, for example, Seubert et al., (1992) Nature, 359:325-327).
Transfected cells that stably express wild-type and variant forms of APP are plated in 96-well format plates at a density sufficient for the rapid detection of the secreted amyloid β (experimentally predetermined for a particular stable cell population). Cells are plated at least six hours prior to the introduction of the test compound at which time the growth medium is replaced by fresh medium containing the compound to be tested. All synthetic agents are initially screened at doses ranging from 10-100 μM. Higher dilutions of agents can be used to minimize cytotoxicity. Incubation of cells with a test compound continues for approximately 16 hours at which time aliquots of medium from each well are removed and assayed for amyloid β.
ELISA is carried out by methods known in the art (see, e.g., Haass et al., Antibodies: A Laboratory Manual, Harlow and lane, Editors, Cold Spring Harbor Press, 1988) The capture antibody is typically a mouse monoclonal (IgG1/kβ-APPa) which recognizes the carboxyl terminal epitope of amyloid β. The specificity of the capture antibody insures measurement of amyloid β without interference from other secreted APP fragments that share amino acid sequence (amyloid β 1-16) homology with amyloid β but lack the carboxy-terminal region. The detecting antibody is typically an affinity-purified rabbit polyclonal antibody that is specific for the amino terminus of amyloid β.
Results from test compounds are compared to results obtained when cells are treated with control agents. Amyloid β levels are determined by comparison to a standard curve obtained by subjecting a range of known amounts of amyloid β to the ELISA.
A compound is identified as “active” when it inhibits cellular production of amyloid β relative to levels in control samples by at least 50% at the initial tested concentration without significant cytotoxicity. Active compounds are then assayed in dose-response experiments to determine the lowest dose of compound necessary for inhibition of amyloid β production.

[1] = transfected H4 cells stably expressing APP, approximately 16 hours incubation, Table B, read-out: ACTIVITY (IC50, inhibition of amyloid β production)
[2] = Homo sapiens, 16 h, transfected H4 cells expressing APP, approximately 16 hours incubation, read-out: ACTIVITY (IC50, inhibition of amyloid β production)
[3] = transfected H4 cells stably expressing APP, approximately 16 hours incubation, read-out: ACTIVITY (IC50, inhibition of amyloid β production)
[4] = transfected H4 cells stably expressing APP constructs, approximately 16 hours incubation, read-out: ACTIVITY (IC50, inhibition of amyloid β production)
[5] = transfected H4 cells stably expressing APP, approx. 16 h incubation, read-out: ACTIVITY (IC50, inhibition of amyloid β production)
[6] = Homo sapiens, 16 h, transfected H4 cells stably expressing APP, approximately 16 hours incubation, read-out: ACTIVITY (IC50, inhibition of amyloid β production)

## C[C@H](COC(=O)N1CCCC1)N(c1cc(F)ccc1F)S(=O)(=O)c1ccc(Cl)cc1 [Example 1238, 4-Chloro-N-(2,5-difluorophenyl)-N-[2-[[[pyrrolidin-1-yl]carbonyl]oxy]-R-1-methylethyl]benzenesulfonamide]
Homo sapiens, 16 h, transfected H4 cells stably expressing APP constructs, approximately 16 hours incubation, read-out: ACTIVITY (IC50, inhibition of amyloid β production)
  IC50: ≤ 0.025 µM

## C[N+]1(CCCOc2ccccc2CN(c2cc(Cl)ccc2Cl)S(=O)(=O)c2ccc(Cl)cc2)CCCCC1 [Example 513, 1-{3-[2-({2,5-dichloro[(4-chlorophenyl)sulfonyl]anilino}methyl)phenoxy]propyl}-1-methylpiperidinium Iodide]
[1]
  IC50: 0.1 to 0.5 µM

## CNC(=O)OC[C@@H](C)N(c1cc(Cl)ccc1CO)S(=O)(=O)c1ccc(Cl)cc1 [Example 1280]
[2]
  IC50: ≤ 0.025 µM

## N-{3-[2-(1-{[(4-chlorophenyl)sulfonyl]-2,5-difluoroanilino}ethyl)phenoxy]propyl}-N-methyl-2,5-bis(trifluoromethyl)benzamide [Example 892]
[3]
  IC50: > 0.5 µM

## CC(C)[C@H](NC(=O)CCCC[C@@H](C)N(c1cc(Cl)ccc1F)S(=O)(=O)c1ccc(Cl)cc1)C(=O)O [Example 1262, (R)-4-Chloro-N-(5-chloro-2-fluorophenyl)-N-[6-[N-(S)-[1-(carboxy)-2-methylpropyl]amino]-1-methyl-6-oxohexyl]benzenesulfonamide]
[4]
  IC50: ≤ 0.025 µM

## O=S(=O)(c1ccc(Cl)cc1)N(Cc1ccccc1OCCCN1CC=CCC1)c1ccccc1 [Example 749, 4-chloro-N-{2-[3-(3,6-dihydro-1(2H)-pyridinyl)propoxy]benzyl}-N-phenylbenzenesulfonamide hydrochloride]
Homo sapiens, 16 h, transfected H4 cells stably expressing APP, approx. 16 h incubation, read-out: ACTIVITY (IC50, inhibition of amyloid β production)
  IC50: 0.1 to 0.5 µM

## C[C@H](COC(=O)NCCCn1ccnc1)N(c1cc(F)ccc1F)S(=O)(=O)c1ccc(Cl)cc1 [Example 517, 4-Chloro-N-(2,5-difluorophenyl)-N-[2-[[N′-[3-(1 h-imidazol-1-yl)propylamino]carbonyl]oxy]-(r)-1-methylethyl]benzenesulfonamide]
[1]
  IC50: 0.1 to 0.5 µM

## 3-[2-(2-{[(4-chlorophenyl)sulfonyl]-2,5-difluoroanilino}-1-methylethyl)-5-fluorophenyl]butanoic acid [Example 940]
[3]
  IC50: > 0.5 µM

## CN1C2CCC1[C@@H](COc1ccccc1CN(c1ccccc1)S(=O)(=O)c1ccc(Cl)cc1)C2 (stereo partly drawn) [Example 941, 4-chloro-N-(2-{[(2S)-7-methyl-7-azabicyclo[2.2.1]hept-2-yl]methoxy}benzyl)-N-phenylbenzenesulfonamide hydrochloride]
Homo sapiens, transfected H4 cells stably expressing APP, approximately 16 hours incubation, read-out: ACTIVITY (IC50, inhibition of amyloid β production)
  IC50: > 0.5 µM

## C[C@H](C(=O)NCc1ccc(F)c(F)c1)N(c1cc(Cl)ccc1F)S(=O)(=O)c1ccc(Cl)cc1 [Example 1334]
[2]
  IC50: > 0.5 µM

## C[C@H](CC[S+]([O-])CC(=O)O)N(c1cc(Cl)ccc1Cl)S(=O)(=O)c1ccc(Cl)cc1 (stereo partly shown) [Example 182]
Table B, transfected H4 cells stably expressing APP, approximately 16 hours incubation, read-out: ACTIVITY (inhibitory concentration IC50, inhibition of amyloid β production)
  IC50: 0.025 to 0.05 µM

## N-hydroxy-3-(2-{[(phenylsulfonyl)anilino]methyl}phenyl)propanamide [Example 1042]
[3]
  IC50: > 0.5 µM

## C[C@H](c1ccccc1CCOC(=O)NC1CCCCC1)N(c1cc(F)ccc1F)S(=O)(=O)c1ccc(Cl)cc1 [Example 685, 2-[2-((1R)-1-{3-[2-(1-{[(4-chlorophenyl)sulfonyl]-2,5-difluoroanilino}ethyl)phenyl]ethyl cyclohexylcarbamate]
[5]
  IC50: 0.1 to 0.5 µM

## 2-((1R)-1-{[(4-chlorophenyl)sulfonyl]-2,5-difluoroanilino}ethyl)benzyl 2-phenylethylcarbamate [Example 743]
[5]
  IC50: 0.1 to 0.5 µM

## O=S(=O)(c1ccc(Cl)cc1)N(Cc1ccccc1OCCCN1CCCCCC1)c1ccccc1 [Example 305, N-{2-[3-(1-azepanyl)propoxy]benzyl}-4-chloro-N-phenylbenzenesulfonamide Hydrochloride]
[1]
  IC50: 0.05 to 0.1 µM

## C[C@H](C(=O)NCCc1ccc(Cl)cc1Cl)N(c1cc(Cl)ccc1F)S(=O)(=O)c1ccc(Cl)cc1 [Example 1305]
[2]
  IC50: > 0.5 µM

## N-{2-[2-(1-{[(4-chlorophenyl)sulfonyl]-2,5-difluoroanilino}ethyl)phenoxy]ethyl}-2-ethyl-N-methylhexanamide [Example 793]
[5]
  IC50: 0.1 to 0.5 µM

## COC(=O)[C@H](CC(C)C)NC(=O)CC[C@@H](C)N(c1cc(Cl)ccc1F)S(=O)(=O)c1ccc(Cl)cc1 [Example 538]
[1]
  IC50: 0.1 to 0.5 µM

## C[C@H](CCCS(C)(=O)=O)N(c1cc(Cl)ccc1Cl)S(=O)(=O)c1ccc(Cl)cc1 [Example 1162, 4-chloro-N-[2,5-dichlorophenyl]-N-[1(R)-methyl-(4-methylsulfonyl]butyl]benzenesulfonamide]
[4]
  IC50: ≤ 0.025 µM

## COc1cccc(C(=O)N2CCCCC2CCOc2ccccc2CN(c2cc(F)ccc2F)S(=O)(=O)c2ccc(Cl)cc2)c1 (stereo not shown) [Example 909, 4-chloro-N-(2,5-difluorophenyl)-N-(2-{2-[1-(3-methoxybenzoyl)-2-piperidinyl]ethoxy}benzyl)benzenesulfonamide]
[6]
  IC50: > 0.5 µM

## 4-[2-((1R)-1-{[(4-chlorophenyl)sulfonyl]-2,5-difluoroanilino}ethyl)-5-fluorophenyl]-N-(cyanomethoxy)butanamide [Example 1079]
[3]
  IC50: > 0.5 µM

## CSCCCc1cc(F)ccc1[C@@H](C)N(c1cc(F)ccc1F)S(=O)(=O)c1ccc(SC)cc1 [Example 912, N-(2,5-difluorophenyl)-N-((1R)-1-{4-fluoro-2-[3-(methylsulfanyl)propyl]phenyl}ethyl)-4-(methylsulfanyl)benzenesulfonamide]
[6]
  IC50: > 0.5 µM

## CC1CC(C)CN(CCCOc2ccccc2CN(c2ccccc2)S(=O)(=O)c2ccc(Cl)cc2)C1 (stereo not shown) [Example 926, 4-chloro-N-{2-[3-(3,5-dimethyl-1-piperidinyl)propoxy]benzyl}-N-phenylbenzenesulfonamide hydrochloride]
[6]
  IC50: > 0.5 µM

## CCCCN(CCCC)CCCNC(=O)[C@@H](C)N(c1cc(Cl)ccc1F)S(=O)(=O)c1ccc(Cl)cc1 [Example 1333]
[2]
  IC50: > 0.5 µM

## O=S(=O)(c1ccc(Cl)cc1)N(Cc1ccccc1OCCC[S+]([O-])C1CCCCC1)c1cc(F)ccc1F (stereo not shown) [Example 407, 4-chloro-N-{2-[3-(cyclohexylsulfinyl)propoxy]benzyl}-N-(2,5-difluorophenyl)benzenesulfonamide]
Homo sapiens, 16 h, transfected H4 cells stably expressing APP, approximately 16 hours incubation, Table B, read-out: ACTIVITY (IC50, inhibition of amyloid β production)
  IC50: 0.05 to 0.1 µM

## O=S(=O)(c1ccc(Cl)cc1)N(Cc1ccccc1OCCC[N+]1([O-])CCCC1)c1cc(F)ccc1F [Example 507]
[1]
  IC50: 0.1 to 0.5 µM

## C[C@H](C(=O)N[C@H]1CC[C@H](O)CC1)N(c1cc(Cl)ccc1F)S(=O)(=O)c1ccc(Cl)cc1 [Example 1338]
[2]
  IC50: 0.1 to 0.5 µM

## N-{3-[2-(1-{[(4-chlorophenyl)sulfonyl]-2,5-difluoroanilino}ethyl)phenoxy]propyl}-N-methyl-3-(trifluoromethyl)benzamide [Example 657]
[5]
  IC50: 0.1 to 0.5 µM

## 3-bromo-N-{3-[2-(1-{[(4-chlorophenyl)sulfonyl]-2,5-difluoroanilino}ethyl)phenoxy]propyl}-N-methylbenzenesulfonamide [Example 806]
[3]
  IC50: 0.1 to 0.5 µM

## N-{3-[2-(1-{[(4-chlorophenyl)sulfonyl]-2,5-difluoroanilino}ethyl)phenoxy]ethyl}-N-methyl-2-(trifluoromethyl)benzamide [Example 697]
[5]
  IC50: 0.1 to 0.5 µM

## (2Z)-N-{3-[2-(1-{[(4-chlorophenyl)sulfonyl]-2,5-difluoroanilino}ethyl)phenoxy]propyl}-N-methyl-3-phenyl-2-propenamide [Example 738]
[5]
  IC50: 0.1 to 0.5 µM
